The results in this text go back to PubChem BioAssay (NCI).

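All cell lines were grown in 96-well plates and treated with compound for 48 hours. GI50 = concentration required for 50% inhibition of growth. TGI: total growth inhibition.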

Experiment in all cases: growth of human tumour cells (NCI), 48 h
The test system of test [1] is A498 renal.
Test [2] relates to HCT-15 colon.
Test [3] deals with HT29 colon.
Test [4] relates to IGROV1 ovarian.
Test [5] deals with NCI-H226 lung.
Test [6] relates to OVCAR-5 ovarian.
Test [7] has as its system SF-295 CNS.
The test system of test [8] is UACC-257 melanoma.

For the molecule `COC1=C(OC)C(=O)C(SC/C=C(\C)CCCC(C)CCCC(C)CCCC(C)C)=CC1=O` (stereo not drawn), the GI50 in test [1] was 1.57 µM; in test [2] it was 1.38 µM; in test [3], 4.24 µM; in test [4], 2.94 µM; in test [5], 2.75 µM; in test [6] it was 0.564 µM. Also, the GI50 in test [7] is 0.734 µM; in test [8], 2.71 µM. For the same molecule, the TGI in test [1] is 6.05 µM; in test [2], over 100 µM; in test [3], over 100 µM; in test [4], over 29.2 µM; in test [5], over 100 µM; in test [6], over 89.7 µM. The TGI in test [7] is 2.88 µM; in test [8] it was over 100 µM.
In the case of `N#CC1=C(/N=C/c2ccccc2)Oc2c(ccc3ccccc23)C1c1ccccc1` (stereo not drawn), the GI50 in test [1] was 0.191 µM; in test [2], 0.494 µM; in test [3] it was 0.37 µM; in test [4], 0.725 µM; in test [5], 1.13 µM; in test [6], 2.13 µM. Besides, the GI50 was 0.357 µM in test [7] and over 100 µM in test [8]. The TGI is 0.747 µM in test [1]; over 100 µM in test [2]; over 100 µM in test [3]; over 100 µM in test [4]; over 100 µM in test [5]; over 100 µM in test [6]. The TGI in test [7] and in test [8] was over 100 µM throughout.
On to `COc1cc(/C=C/C(=O)c2cccc(-n3cc(-c4ccc(Cl)cc4)[nH]c3=O)c2)cc(OC)c1OC`, for which the GI50 was 30.2 µM in test [1]; 3.85 µM in test [2]; 2 µM in test [3]; 4.68 µM in test [4]; over 100 µM in test [5]; 3.11 µM in test [6]. Moreover, the GI50 in test [7] is 24.3 µM; in test [8], 17.4 µM. The TGI in test [1] was over 100 µM; in test [2], 10.3 µM; in test [3] it was 3.71 µM; in test [4] it was 19 µM; in test [5] it was over 100 µM; in test [6] it was 10.2 µM. For the same molecule, the TGI is over 100 µM in test [7] and 90.9 µM in test [8].
Take `c1ccc2c(c1)Nc1ccncc1S2`: the GI50 was 5.13 µM in test [1]; 28 µM in test [2]; 18.4 µM in test [3]; 22.8 µM in test [4]; 17.1 µM in test [5]; 19 µM in test [6]. Moreover, the GI50 in test [7] is 14.7 µM; in test [8] it was 31.1 µM. For the same molecule, the TGI in test [1] was 24.4 µM; in test [2], over 100 µM; in test [3] it was over 100 µM; in test [4] it was 99.6 µM; in test [5], over 100 µM; in test [6] it was over 100 µM. Further, the TGI in test [7] is 68.8 µM; in test [8] it was over 100 µM.
Take `Cc1ccc(/C(C#N)=C/c2cccc([N+](=O)[O-])c2)cc1`: the TGI in test [1], in test [2], in test [3], in test [4], in test [5] and in test [6] was over 100 µM throughout. In addition, the TGI in test [7] was 67.3 µM; in test [8], over 100 µM.
Turning to `CCc1cccc(C)c1NC(=O)c1sc2nc3c(cc2c1N)C(=O)CCC3`, the GI50 is 0.2 µM in test [1]; 0.495 µM in test [2]; 0.411 µM in test [3]; 4.75 µM in test [4]; 13 µM in test [5]; 2.74 µM in test [6]. In addition, the GI50 in test [7] is 0.299 µM; in test [8] it was 12.5 µM. The TGI in test [1] is 0.759 µM; in test [2], over 100 µM; in test [3], 2.3 µM; in test [4], over 100 µM; in test [5], over 100 µM; in test [6], over 100 µM. In addition, the TGI in test [7] is over 100 µM; in test [8] it was 76.1 µM.
Turning to `O=C(/C=C/c1cccc(O)c1)c1cccc(-n2cc(-c3ccccc3)[nH]c2=O)c1`, the GI50 in test [1] is 12.3 µM; in test [2], 2.94 µM; in test [3], 2.58 µM; in test [4] it was 3.24 µM; in test [5], 8.48 µM; in test [6] it was 3.86 µM. Also, the GI50 in test [7] was 5.77 µM; in test [8] it was 8.89 µM. The TGI is 24.9 µM in test [1]; 10.3 µM in test [2]; over 20.6 µM in test [3]; 13.2 µM in test [4]; 28.5 µM in test [5]; 11.9 µM in test [6]. In addition, the values for the TGI in test [7] and in test [8] were 11.8 µM and 21.8 µM, respectively.
In the case of `COC(=O)c1cc2c(cc1Cl)SC1=NN(C)C(N(C)C)N1S2(=O)=O` (stereo not drawn), the GI50 in test [1], in test [2], in test [3], in test [4], in test [5] and in test [6] was over 100 µM in each case. Besides, the GI50 in test [7] and in test [8] was over 100 µM each time. Further, the TGI in test [1], in test [2], in test [3], in test [4], in test [5] and in test [6] was over 100 µM throughout. Also, the TGI in test [7] and in test [8] was over 100 µM each time.
In the case of `O=[N+]([O-])c1ccc(N2CCOCC2)c2c1no[n+]2[O-]`, the GI50 in test [1] is 1.17 µM; in test [2], 1.32 µM; in test [3], 1.04 µM; in test [4], 1.3 µM; in test [5], 2.91 µM; in test [6], 3.28 µM. The GI50 is 1.08 µM in test [7] and 2.76 µM in test [8]. For the same molecule, the TGI in test [1] was 3.2 µM; in test [2] it was 2.89 µM; in test [3], 2.8 µM; in test [4], 4.15 µM; in test [5], 17.5 µM; in test [6] it was 13.4 µM. Moreover, the values for the TGI in test [7] and in test [8] were 4.67 µM and 10.7 µM, respectively.
Turning to `CN(CCNCc1ccccn1)CCNCc1ccccn1`, the GI50 in test [1] was 1.8 µM; in test [2], 2.96 µM; in test [3], 2.79 µM; in test [4], 3.23 µM; in test [5], 1.92 µM; in test [6], 2.66 µM. The GI50 in test [7] is 2.23 µM; in test [8], 1.97 µM. Besides, the TGI was 3.27 µM in test [1]; 12.6 µM in test [2]; 7.86 µM in test [3]; 12.6 µM in test [4]; 4.2 µM in test [5]; 8.57 µM in test [6]. Also, the TGI in test [7] worked out at 5.69 µM; in test [8], 3.85 µM.
Regarding `Cc1cc[n+]2c(c1)-c1cc(C)cc[n+]1CC2`, the TGI in test [1], in test [2], in test [3], in test [4], in test [5] and in test [6] was over 100 µM throughout. For the same molecule, the TGI in test [7] and in test [8] was over 100 µM throughout.
Consider `CSc1nc2sc3c(c2c(=O)n1-c1ccc(C(C)C)cc1)CCC(=O)C3`, for which the GI50 in test [1] is 20.4 µM; in test [2], 2.14 µM; in test [3], 2.97 µM; in test [4], 2.02 µM; in test [5], 1.99 µM; in test [6] it was 2.71 µM. Further, the values for the GI50 in test [7] and in test [8] were 2.2 µM and 3.21 µM, respectively. Besides, the TGI amounted to 82.7 µM in test [1]; 4.04 µM in test [2]; 6.7 µM in test [3]; 4.88 µM in test [4]; 4.68 µM in test [5]; 6.58 µM in test [6]. The results for the TGI in test [7] and in test [8] were 4.76 µM and 9.81 µM, respectively.
Regarding `NS(=O)(=O)c1ccc(-c2cc3ccncc3cc2OCc2ccccc2)cc1`, the GI50 in test [1] is 5.65 µM; in test [2], 13.2 µM; in test [3], over 16.4 µM; in test [4], over 25 µM; in test [5] it was over 19.9 µM; in test [6], over 25 µM. Besides, the GI50 in test [7] was over 18 µM; in test [8], over 25 µM. The TGI in test [1], in test [2], in test [3], in test [4], in test [5] and in test [6] was over 25 µM throughout. Besides, the TGI in test [7] and in test [8] was over 25 µM throughout.
Consider `Oc1cccc2ccc(N/N=C/c3cc(CN4CCOCC4)c(O)c4ncccc34)nc12`, for which the GI50 in test [1] is 0.376 µM; in test [2], under 0.0104 µM; in test [3] it was 0.324 µM; in test [4], 0.066 µM; in test [5] it was 0.533 µM; in test [6] it was 0.135 µM. The GI50 was 0.0471 µM in test [7] and 0.0368 µM in test [8]. Besides, the TGI in test [1] worked out at 4.06 µM; in test [2], 1.78 µM; in test [3] it was 5.92 µM; in test [4] it was 4.94 µM; in test [5] it was 5.57 µM; in test [6], 15.4 µM. The figures for the TGI in test [7] and in test [8] were 5.27 µM and 0.44 µM, respectively.
